Where two headings read alike, the source gives them in different places.
Tests used:
Format in all cases: cell-based
MM.1S cells = test: Effect of the compound on the proliferation of MM.1S cells (MTS); settings: Homo sapiens, MM1.S, 168 h, 7 days, read-out: Cell inhibitory activity (IC50)
Procedure: MM.1S cells were cultured with 1640 plus 10% fetal bovine serum and collected. The cell concentration was diluted according to the action time of 7 days, and 180 ul cell suspension was added to each well of the 96-well cell plate to make the cell count to be 20,000. 20 ul of DMSO with a final concentration of 0.2% was added to the control cell wells. The compound was diluted 5-fold with the 10 mM stock solution, and 20 ul was also added to the compound cell wells (the final concentration of DMSO is 0.2%). The cells were placed in a 37° C., 5% CO2 incubator and incubated for 7 days. After preparing the reaction solution according to the MTS kit (Promega, G5430), 20 μL was added to each well, incubated in a 37° C., 5% CO2 incubator for 3-4 h. Read the 490 nm absorbance value with a microtiter plate, and used the 690 nm absorbance value as the background value and OD490-OD690 as the final initial data. The formula for calculating the inhibition rate of the compound is: inhibition rate=(OD DMSO-ODcompound)/(ODDMSO-Oblank)×100%. The compound's proliferation inhibition IC50 was fitted by Graph Pad Prism 5.0. The experiment was repeated three times, and three parallel experiments were used to calculate the average and standard deviation each time.

Mino cells = test: Effect of the compound on the proliferation of Mino cells (MTS); settings: Homo sapiens, 72 h, 3 days, read-out: Inhibitory activity (IC50)
Procedure: Mino cells were cultured with 1640 plus […] and collected. The cell concentration was diluted according to the action time of 3 days, and 90 ul cell suspension was added to each well of the 96-well cell plate to make the cell count to be 8000. 10 ul of DMSO with a final concentration of 0.2% was added to the control cell wells. The compound was diluted 5-fold with the 10 mM stock solution, and 10 ul was also added to the compound cell wells (the final concentration of DMSO was 0.2%). The cells were placed in a 37° C., […] incubator and incubated for 3 days. After preparing the reaction solution according to the MTS kit (Promega, G5430), 20 μL was added to each well, incubated in a 37° C., 5% CO2 incubator for 3-4 h. Read the 490 nm absorbance value with a microtiter plate, and used the 690 nm absorbance value as the background value and OD490-OD690 as the final initial data. The formula for calculating the inhibition rate of the compound was: inhibition rate=(OD DMSO-ODcompound)/(ODDMSO-Oblank)×100%. The compound's proliferation inhibition IC50 was fitted by Graph Pad Prism 5.0. The experiment was repeated three times, and three parallel experiments were used to calculate the average and standard deviation each time.

MV-4-11 cells = test: Effect of the compound on proliferation of MV-4-11 cells (MTS); settings: Homo sapiens
Procedure: MV-4-11 cells were cultured with IMDM plus 10% fetal bovine serum and collected. The cell concentration was diluted according to the action time of 7 days, and 180 ul of cell suspension was added to each well of a 96-well cell plate to make the cell count to be 2000. 20 ul of DMSO with a final concentration of 0.2% was added to the control cell wells. The compound was diluted 5-fold with the 10 mM stock solution, and 20 ul was also added to the compound cell wells (the final concentration of DMSO was 0.2%). The cells were placed in a 37° C., 5% CO2 incubator and incubated for 7 days. After preparing the reaction solution according to the MTS kit (Promega, G5430), 20 μL was added to each well, incubated in a 37° C., 5% CO2 incubator for 3-4 h. Read the 490 nm absorbance value with a microtiter plate, and used the 690 nm absorbance value as the background value and OD490-OD690 as the final initial data. The formula for calculating the inhibition rate of the compound was: inhibition rate=(OD DMSO-ODcompound)/(ODDMSO-Oblank)×100%. The compound's proliferation inhibition IC50 was fitted by Graph Pad Prism 5.0. The experiment was repeated three times, and three parallel experiments were used to calculate the average and standard deviation each time. The cell viability test results were shown in Table 3: A means cell viability IC50<1 μM, B means cell viability 1 μM≤IC50≤20 μM, C means cell viability IC50>20 μM.

[1] = MV4-11, 168 h, 7 days, MTS, read-out: Inhibitory activity (IC50)

Compound	IC50 (MM.1S cells) [nM]	IC50 (MV-4-11 cells; [1]) [nM]	IC50 (MV-4-11 cells; MV4-11, read-out: cytostatic activity (IC50) on MV-4-11 cells) [nM]	IC50 (Mino cells) [nM]
Cc1nc2cccc(N)c2c(=O)n1C1CCC(=O)NC1=O (stereo not drawn) [CC-122, reference compound]	< 150	> 20000	> 20000	150 to 20000
O=C1CCC(N2Cc3c(OCc4nnc(-c5ccc(OC(F)(F)F)cc5)s4)cccc3C2=O)C(=O)N1 (stereo not drawn) [Compound 41, 3-(1-oxo-4-((5-(4-trifluoromethoxyphenyl)-1,3,4-thiadiazol-2-)methoxy)isoindolin-2-) piperidine-2,6-dione]	< 150			150 to 20000
O=C1CCC(N2Cc3c(OCc4cn(-c5ccc(Cl)cc5)nn4)cccc3C2=O)C(=O)N1 (stereo not drawn) [Compound 74, 3-(4-((1-(4-chlorophenyl)-1H-1,2,3-triazol-4-yl)methoxy)-1-oxoisoindolin-2-yl) piperidine-2,6-dione]	< 150	< 1000		
O=C1CCC(N2Cc3c(OCc4cn(-c5ccc(OC(F)(F)F)cc5)nn4)cc(F)cc3C2=O)C(=O)N1 (stereo not drawn) [Compound 77, 3-(6-fluoro-1-oxo-4-((1-(4-(trifluoromethoxy)phenyl)-1H-1,2,3-triazol-4-yl)methoxy)isoindolin-2-yl) piperidine-2,6-dione]	< 150	< 1000		
O=C1CCC(N2Cc3c(OCc4ncc(-c5ccc(OC(F)(F)F)cc5)o4)cc(F)cc3C2=O)C(=O)N1 (stereo not drawn) [Compound 81, 3-(6-fluoro-1-oxo-4-((5-(4-(trifluoromethoxy)phenyl)oxazol-2-yl)methoxy)isoindolin-2-yl) piperidine-2,6-dione]	< 150	< 1000		
O=C1CCC(N2Cc3c(NCc4cnc(-c5cccc(OC(F)(F)F)c5)o4)cccc3C2=O)C(=O)N1 (stereo not drawn) [Compound 90]	< 150			< 150
O=C1CCC(N2Cc3c(NCc4ncc(-c5ccc(OC(F)(F)F)cc5)o4)cccc3C2=O)C(=O)N1 (stereo not drawn) [Compound 93]	< 150			150 to 20000

Continued, in another order:

IC50 (MM.1S cells) [nM]	IC50 (MV-4-11 cells; [1]) [nM]	IC50 (MV-4-11 cells; MV4-11, read-out: cytostatic activity (IC50) on MV-4-11 cells) [nM]	Compound	IC50 (Mino cells) [nM]
< 150			O=C1CCC(N2Cc3c(OCc4ncc(-c5ccc(OC(F)(F)F)cc5)o4)cccc3C2=O)C(=O)N1 (stereo not drawn) [Compound 40, 3-(1-oxo-4-((5-(4-trifluoromethoxyphenyl)oxazol-2-)methoxy)isoindolin-2-) piperidine-2,6-dione]	< 150
< 150			O=C1CCC(N2Cc3c(OCc4ccc(-c5ccc(OC(F)(F)F)cc5)o4)cccc3C2=O)C(=O)N1 (stereo not drawn) [Compound 42, 3-(1-oxo-4-((5-(4-trifluoromethoxyphenyl)furan-2-)methoxy)isoindolin-2-) piperidine-2,6-dione]	< 150
< 150			O=C1CCC(N2Cc3c(OCc4nnc(-c5ccc(OC(F)(F)F)cc5)o4)cccc3C2=O)C(=O)N1 (stereo not drawn) [Compound 43, 3-(1-oxo-4-((5-(4-trifluoromethoxyphenyl)-1,3,4-oxadiazol-2-)methoxy)isoindolin-2-) piperidine-2,6-dione]	< 150
< 150			O=C1CCC(N2Cc3c(OCc4cnc(-c5ccc(OC(F)(F)F)cc5)s4)cccc3C2=O)C(=O)N1 (stereo not drawn) [Compound 44, 3-(1-oxo-4-((2-(4-trifluoromethoxyphenyl)thiazol-5-)methoxy)isoindolin-2-) piperidine-2,6-dione]	< 150
< 150	1000 to 20000		COC[C@H](Cc1ccccc1)n1cc(COc2cccc3c2CN(C2CCC(=O)NC2=O)C3=O)nn1 (stereo partly drawn) [Compound 55]	
< 150	< 1000		O=C1CCC(N2Cc3c(OCc4cn(-c5ccc(Cl)c(Cl)c5)nn4)cccc3C2=O)C(=O)N1 (stereo not drawn) [Compound 75, 3-(4-((1-(3,4-dichlorophenyl)-1H-1,2,3-triazol-4-yl)methoxy)-1-isoindolin-2-yl) piperidine-2,6-dione]	
< 150	< 1000		O=C1CCC(N2Cc3c(OCc4cn(C56CC7CC(CC(C7)C5)C6)nn4)cccc3C2=O)C(=O)N1 [Compound 76, 3-(4-((1-((3S, 5S, 7S)-adamantan-1-yl)-1H-1,2,3-triazol-4-yl)methoxy)-1-isoindolin-2-yl) piperidin-2,6-dione]	

Source: patent US20220041578A1, “ISOINDOLINE COMPOUND, AND PREPARATION METHOD, PHARMACEUTICAL COMPOSITION, AND APPLICATION OF ISOINDOLINE COMPOUND” (Shanghai Institute of Meteria Medica, Chinese Academy of …, priority 2018, published 2022)
